From patent publication US8729017B2 (priority 2011, dated 2014)
Numbered stars: 1 amine (or outer) side, 2 acyl side, 3 side chain; on linkers, the order of the positions; unused ones are H or OH. Square brackets hold non-standard residues; d marks the D form. Side chains are listed from the residue outwards. Peptide text beside a SMILES is read from it. * marks the point of attachment. γGlu = O=C(O)[C@H](CCC(=O)[*:2])N[*:1]; Palmitoyl = CCCCCCCCCCCCCCCC(=O)*; Orn = NCCC[C@H](N)C(=O)O; Aib = CC(C)(N)C(=O)O

Columns and labels:
Format in all cases: cell-based
GLP-1 receptor = target: T1, GLP-1 receptor (Homo sapiens, UniProt P43220); assay: cAMP induction, firefly luciferase reporter assay in HEK293 cells co-transfected with the GLP-1 receptor; settings: HEK293 cells, cAMP-responsive luciferase reporter, 5 hours incubation
T1 construct: expressed in transfected cells; host or cells: HEK293
Description: (§1) The ability of each peptide to induce cAMP was measured in a firefly luciferase-based reporter assay. […] At the end of the incubation, 100 μL of LucLite luminescence substrate reagent (Perkin Elmer, Wellesley, Mass.) were added to each well. […] In some instances, the in vitro agonist activity at the GIP receptor was also tested.

GIP receptor = target: T2, GIP receptor (Homo sapiens, UniProt P48546); assay: in vitro agonist activity at the GIP receptor (cAMP luciferase reporter, HEK293 cells); settings: in vitro agonist activity; read-out: EC50 (nM) at GIP receptor
T2 construct: expressed in transfected cells; host or cells: HEK293
T2 sequence (P48546 22-466): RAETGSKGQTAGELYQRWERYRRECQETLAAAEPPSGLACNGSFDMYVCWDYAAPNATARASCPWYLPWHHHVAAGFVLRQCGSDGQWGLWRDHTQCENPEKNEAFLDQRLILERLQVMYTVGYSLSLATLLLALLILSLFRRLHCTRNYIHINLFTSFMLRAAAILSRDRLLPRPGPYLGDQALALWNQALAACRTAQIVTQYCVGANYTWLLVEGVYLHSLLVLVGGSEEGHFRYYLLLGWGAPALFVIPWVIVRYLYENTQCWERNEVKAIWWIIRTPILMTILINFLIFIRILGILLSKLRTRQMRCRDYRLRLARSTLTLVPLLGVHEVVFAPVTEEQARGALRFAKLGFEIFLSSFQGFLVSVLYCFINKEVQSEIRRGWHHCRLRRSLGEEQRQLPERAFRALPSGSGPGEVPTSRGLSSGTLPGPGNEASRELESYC
Description: as §1, with “It is understood that a lower EC50 indicates higher activity or potency at the receptor. […] The” for “The”

glucagon receptor = target: T3, glucagon receptor (Homo sapiens, UniProt P47871); assay: cAMP induction, firefly luciferase reporter assay in HEK293 cells co-transfected with the glucagon receptor; settings: HEK293 cells, cAMP-responsive luciferase reporter, 5 hours incubation
T3 construct: expressed in transfected cells; host or cells: HEK293
Description: as §1

T1 sequence (P43220 24-463): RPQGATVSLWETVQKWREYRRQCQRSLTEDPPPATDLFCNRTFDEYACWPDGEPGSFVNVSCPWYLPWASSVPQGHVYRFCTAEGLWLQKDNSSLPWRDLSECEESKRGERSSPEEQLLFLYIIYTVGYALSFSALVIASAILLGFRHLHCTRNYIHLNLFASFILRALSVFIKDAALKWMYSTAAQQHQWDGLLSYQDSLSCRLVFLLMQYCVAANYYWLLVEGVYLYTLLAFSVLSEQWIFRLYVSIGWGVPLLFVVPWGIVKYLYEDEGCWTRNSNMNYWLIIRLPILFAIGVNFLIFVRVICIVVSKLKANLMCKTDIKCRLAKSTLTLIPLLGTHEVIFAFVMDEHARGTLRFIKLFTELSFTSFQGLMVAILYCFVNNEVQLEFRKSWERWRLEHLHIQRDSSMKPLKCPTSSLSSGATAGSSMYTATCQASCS
T3 sequence (P47871 26-477, species assumed): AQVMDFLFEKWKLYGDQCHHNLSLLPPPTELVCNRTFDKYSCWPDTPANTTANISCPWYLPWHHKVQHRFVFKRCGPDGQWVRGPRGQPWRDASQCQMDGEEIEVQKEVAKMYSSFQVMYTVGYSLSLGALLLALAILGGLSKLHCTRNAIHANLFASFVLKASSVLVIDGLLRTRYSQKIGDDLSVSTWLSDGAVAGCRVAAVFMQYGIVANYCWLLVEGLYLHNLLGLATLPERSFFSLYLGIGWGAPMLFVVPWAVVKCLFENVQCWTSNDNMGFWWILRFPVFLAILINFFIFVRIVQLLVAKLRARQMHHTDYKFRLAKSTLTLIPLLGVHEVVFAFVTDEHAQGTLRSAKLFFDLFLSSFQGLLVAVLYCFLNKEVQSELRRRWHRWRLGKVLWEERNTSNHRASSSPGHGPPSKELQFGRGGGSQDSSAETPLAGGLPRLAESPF

| EC50 (GLP-1 receptor) [nM] | EC50 (GIP receptor) [nM] | EC50 (glucagon receptor) [nM] | SMILES |
| --- | --- | --- | --- |
| 0.033 | 147 | 4.6 | CCCCCCCCCCCCCCCC(=O)N[C@@H](CCC(=O)NCCCC[C@H](NC(=O)[C@H](CC(=O)O)NC(=O)[C@H](CO)NC(=O)[C@@H](NC(=O)[C@H](Cc1ccccc1)NC(=O)[C@@H](NC(=O)CNC(=O)[C@H](CCC(N)=O)NC(=O)C(C)(C)NC(=O)[C@@H](N)Cc1c[nH]cn1)[C@@H](C)O)[C@@H](C)O)C(=O)N[C@@H](CO)C(=O)N[C@@H](CCCCN)C(=O)N[C@@H](Cc1ccc(O)cc1)C(=O)N[C@@H](CC(C)C)C(=O)N[C@@H](CC(=O)O)C(=O)NC(C)(C)C(=O)N[C@@H](CCCNC(=N)N)C(=O)N[C@@H](C)C(=O)N[C@@H](C)C(=O)N[C@@H](CCC(N)=O)C(=O)N[C@@H](CC(=O)O)C(=O)N[C@@H](Cc1ccccc1)C(=O)N[C@H](C(=O)N[C@@H](CCC(N)=O)C(=O)N[C@@H](Cc1c[nH]c2ccccc12)C(=O)N[C@@H](CC(C)C)C(=O)N[C@@H](CCSC)C(=O)N[C@@H](CCCCN)C(=O)N[C@H](C(=O)N[C@@H](CCCCN)C(=O)N[C@H](CCC(=O)O)C(=O)O)[C@@H](C)O)C(C)C)C(=O)O [compound 60] (H-H[Aib]QGTFTSDK([γGlu-Palmitoyl])SKYLD[Aib]RAAQDFVQWLMKTK[dE]-OH; N-terminus assumed) |
| 0.004 | 1.58 | 0.023 | CCCCCCCCCCCCCCCC(=O)N[C@@H](CCC(=O)N[C@@H](CCC(=O)NCCCC[C@H](NC(=O)[C@H](CC(=O)O)NC(=O)[C@H](CO)NC(=O)[C@@H](NC(=O)[C@H](Cc1ccccc1)NC(=O)[C@@H](NC(=O)CNC(=O)[C@H](CCC(N)=O)NC(=O)C(C)(C)NC(=O)[C@@H](N)Cc1c[nH]cn1)[C@@H](C)O)[C@@H](C)O)C(=O)N[C@@H](CO)C(=O)N[C@@H](CCCCN)C(=O)N[C@@H](Cc1ccc(O)cc1)C(=O)N[C@@H](CC(C)C)C(=O)N[C@@H](CC(=O)O)C(=O)NC(C)(C)C(=O)N[C@@H](CCCNC(=N)N)C(=O)N[C@@H](C)C(=O)N[C@@H](C)C(=O)N[C@@H](CCC(N)=O)C(=O)N[C@@H](CC(=O)O)C(=O)N[C@@H](Cc1ccccc1)C(=O)N[C@H](C(=O)N[C@@H](CCC(N)=O)C(=O)N[C@@H](Cc1c[nH]c2ccccc12)C(=O)N[C@@H](CC(C)C)C(=O)N[C@@H](CCSC)C(=O)N[C@@H](CCCCN)C(=O)NCC(=O)N[C@@H](CCCNC(=N)N)C(=O)NCC(N)=O)C(C)C)C(=O)O)C(=O)O [compound 23] (H-H[Aib]QGTFTSDK([γGlu-γGlu-Palmitoyl])SKYLD[Aib]RAAQDFVQWLMKGRG-NH2; N-terminus assumed) |
| 0.019 | 3.96 | 0.023 | CCCCCCCCCCCCCCCC(=O)N[C@@H](CCC(=O)N[C@@H](CCC(=O)NCCCC[C@H](NC(=O)[C@H](CC(=O)O)NC(=O)[C@H](CO)NC(=O)[C@@H](NC(=O)[C@H](Cc1ccccc1)NC(=O)[C@@H](NC(=O)CNC(=O)[C@H](CCC(N)=O)NC(=O)C(C)(C)NC(=O)[C@@H](N)Cc1c[nH]cn1)[C@@H](C)O)[C@@H](C)O)C(=O)N[C@@H](CO)C(=O)N[C@@H](CCCCN)C(=O)N[C@@H](Cc1ccc(O)cc1)C(=O)N[C@@H](CC(C)C)C(=O)N[C@@H](CC(=O)O)C(=O)NC(C)(C)C(=O)N[C@@H](CCCNC(=N)N)C(=O)N[C@@H](C)C(=O)N[C@@H](C)C(=O)N[C@@H](CCC(N)=O)C(=O)N[C@@H](CC(=O)O)C(=O)N[C@@H](Cc1ccccc1)C(=O)N[C@H](C(=O)N[C@@H](CCC(N)=O)C(=O)N[C@@H](Cc1c[nH]c2ccccc12)C(=O)N[C@@H](CC(C)C)C(=O)N[C@@H](CCSC)C(=O)N[C@@H](CCCN)C(=O)N[C@H](C(=O)N[C@@H](CCCN)C(=O)N[C@@H](CCC(=O)O)C(=O)O)[C@@H](C)O)C(C)C)C(=O)O)C(=O)O [compound 33] (H-H[Aib]QGTFTSDK([γGlu-γGlu-Palmitoyl])SKYLD[Aib]RAAQDFVQWLM[Orn]T[Orn]E-OH; N-terminus assumed) |
| 0.004 | 0.676 | 0.009 | CCCCCCCCCCCCCCCC(=O)N[C@@H](CCC(=O)N[C@@H](CCC(=O)NCCCC[C@H](NC(=O)[C@H](CC(=O)O)NC(=O)[C@H](CO)NC(=O)[C@@H](NC(=O)[C@H](Cc1ccccc1)NC(=O)[C@@H](NC(=O)CNC(=O)[C@H](CCC(N)=O)NC(=O)C(C)(C)NC(=O)[C@@H](N)Cc1c[nH]cn1)[C@@H](C)O)[C@@H](C)O)C(=O)N[C@@H](CO)C(=O)N[C@@H](CCCCN)C(=O)N[C@@H](Cc1ccc(O)cc1)C(=O)N[C@@H](CC(C)C)C(=O)N[C@@H](CC(=O)O)C(=O)N[C@@H](CCC(=O)O)C(=O)N[C@@H](CCCNC(=N)N)C(=O)N[C@@H](C)C(=O)N[C@@H](C)C(=O)N[C@@H](CCC(N)=O)C(=O)N[C@@H](CC(=O)O)C(=O)N[C@@H](Cc1ccccc1)C(=O)N[C@H](C(=O)N[C@@H](CCC(N)=O)C(=O)N[C@@H](Cc1c[nH]c2ccccc12)C(=O)N[C@@H](CC(C)C)C(=O)N[C@@H](CCSC)C(=O)N[C@@H](CC(=O)O)C(=O)N[C@H](C(N)=O)[C@@H](C)O)C(C)C)C(=O)O)C(=O)O [compound 61] |
